{"source": "patent US20150374767A1", "about": "“Treatment of Cancer” (priority 2013, published 2015)", "key": {"Virttu cell line panel": {"tested_on": "Virttu cell line panel", "test": "cells", "format": "cell-based", "conditions": "Homo sapiens, A-431, 72 h, read-out: IC50 (DCP leakage), range"}, "[1]": {"tested_on": "EGFR- or ErbB2-overexpressing cells", "conditions": "read-out: IC50, growth of EGFR- or ErbB2-overexpressing cells; cited from earlier work"}, "A431 cells [2]": {"tested_on": "A431 cells", "conditions": "read-out: IC50 in A431 cells, previously reported; cited from earlier work"}, "A431": {"tested_on": "A431", "format": "cell-based, human"}, "A431 cells [3]": {"tested_on": "A431 cells", "test": "cells", "conditions": "Homo sapiens, A-431, 72 h, read-out: IC50 (DCP leakage)"}, "[4]": {"tested_on": "human gastric carcinoma xenograft", "test": "patient-derived human gastric carcinoma xenograft model", "design": "species or system mice", "conditions": "mouse, in vivo", "experimental": "HSV1716 (Seprehvir) was used in a personalised oncology study. Patient-derived tumour samples were obtained from a gastric carcinoma. There have been no previous in vitro or in vivo pre-clinical studies with Seprehvir in human gastric carcinoma cells/xenografts. Seprehvir was stored at −70° C., and multiple vials were provided to avoid repeated freeze/thawing.\nTwo groups of 3 mice with gastric carcinoma implants were treated with 2×10^6 pfu Seprehvir by either intratumoural (IT) or intravenous (IV) routes of administration. Control mice (n=3) received no treatment and in these mice the implants grew rapidly and all were sacrificed within 18 days (FIG. 61). For IV injection, Seprehvir was administered on days 0, 3, 10 and 18, at which point the tumors were too large and the mice were sacrificed.\nFor IT injection of Seprehvir, 2×10^6 pfu was administered on days 0, 3, 10, 18, 21 and 25.\n. Control mice (n=3) received no treatment and in these mice the implants grew rapidly and all were sacrificed within 18 days (FIG. 62). […]. A follow-on study with HSV1716 administering more frequent by IV dosing at the higher concentration of 10^7 pfu was performed using the same human gastric carcinoma xenograft model. […].\nGroups of 3 mice received IV injection of HSV1716 at 1×10^7 pfu on days 1, 3, 5, 8, 10, 12, 15, 17 and 19. […]"}, "Hep3B": {"tested_on": "Hep3B", "format": "cell-based, human"}, "U87": {"tested_on": "U87", "format": "cell-based, human"}, "UVW": {"tested_on": "UVW", "format": "cell-based, human"}, "[5]": {"tested_on": "cells expressing low levels of EGFR or ErbB2", "conditions": "read-out: IC50, cells expressing low levels of EGFR or ErbB2; cited from earlier work"}, "Virttu cell panel": {"tested_on": "Virttu cell panel", "test": "combination with HSV1716, DCP cell death, Chou-Talalay analysis, cell panel", "format": "cell-based, human", "conditions": "drug + HSV1716 moi 0.5 and 0.05, cell death by DCP after 72 hours"}}, "note": "Where two headings read alike, the source gives them in different places."}
{"smiles": "CS(=O)(=O)CCNCc1ccc(-c2ccc3ncnc(Nc4ccc(OCc5cccc(F)c5)c(Cl)c4)c3c2)o1", "note": "[Lapatinib, N-[3-chloro-4-[(3-fluorophenyl)methoxy]phenyl]-6-[5-[(2-methylsulfonylethylamino)methyl]-2-furyl]quinazolin-4-amine]", "values": [{"measurement": "IC50", "setting": "Virttu cell line panel", "result": "4000 to 30000", "unit": "nM"}, {"measurement": "IC50", "setting": "[1]", "result": "90 to 210", "unit": "nM"}, {"measurement": "IC50", "setting": "A431 cells [2]", "result": 160, "unit": "nM"}, {"measurement": "number of synergistic combinations out of 8", "setting": "A431", "result": "1/8"}, {"measurement": "synergy/antagonism with HSV1716 on cell death (Chou-Talalay)", "setting": "A431", "result": "some synergy"}, {"measurement": "IC50", "setting": "A431 cells [3]", "result": 150, "unit": "nM"}, {"measurement": "tumour growth inhibition", "setting": "[4]", "result": "some tumour growth inhibition until day 6"}, {"measurement": "synergy/antagonism with HSV1716 on cell death (Chou-Talalay)", "setting": "Hep3B", "result": "strongly synergistic"}, {"measurement": "number of synergistic combinations out of 8", "setting": "U87", "result": "2/8"}, {"measurement": "synergy/antagonism with HSV1716 on cell death (Chou-Talalay)", "setting": "U87", "result": "some synergy"}, {"measurement": "synergy/antagonism with HSV1716 on cell death (Chou-Talalay)", "setting": "UVW", "result": "strongly synergistic"}, {"measurement": "IC50", "setting": "[5]", "result": "3000 to 12000", "unit": "nM"}, {"measurement": "number of cell lines tested in which antagonism was detected", "setting": "Virttu cell panel", "result": "8 of the 10"}]}
